Consider 8 compounds from PubChem BioAssay (NCI).

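Results reflect a 48-hour exposure of cells in 96-well plates to compound at five concentrations. At the TGI there is no net growth.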

Among the test systems are OVCAR-3 ovarian; KM12 colon; NCI-H226 lung; LOX IMVI melanoma; HCT-116 colon; HL-60(TB) leukemia; MDA-MB-231 breast; NCI/ADR-RES ovarian; PC-3 prostate; SK-OV-3 ovarian; MALME-3M melanoma; HCC-2998 colon; OVCAR-4 ovarian; CAKI-1 renal; A549 NSCLC; TK-10 renal; U251 CNS; OVCAR-5 ovarian; CCRF-CEM leukemia.
Holding throughout (assay): DTP human tumour cell line panel, 48 h

A word on the TGI: it is the concentration at which net growth stops. Read a high TGI as lower sensitivity of the cells. As for `O=NN1C(c2ccccc2)CC(=NO)CC1c1ccccc1` (stereo not drawn), the TGI in the assay on OVCAR-3 ovarian, in the assay on KM12 colon, in the assay on NCI-H226 lung, in the assay on LOX IMVI melanoma, with HCT-116 colon and with HL-60(TB) leukemia was more than 100 µM each time. Also, the total growth inhibition concentration (TGI) in the assay with MDA-MB-231 breast, in the assay with NCI/ADR-RES ovarian, with PC-3 prostate, with SK-OV-3 ovarian, in the assay on MALME-3M melanoma and in the assay with HCC-2998 colon was more than 100 µM each time. The total growth inhibition concentration (TGI) in the assay on OVCAR-4 ovarian, in the assay on CAKI-1 renal, in the assay with A549 NSCLC, with TK-10 renal and in the assay with U251 CNS was more than 100 µM in each case.
In the case of `COC(=O)C1CC2CCC1(O[Si](C(C)C)(C(C)C)C(C)C)C(O)C2` (stereo not drawn), the TGI in the assay on OVCAR-5 ovarian was 27.2 µM; in the assay with OVCAR-3 ovarian it was 39.3 µM; in the assay with KM12 colon, 38.6 µM; in the assay with NCI-H226 lung, 40.7 µM; in the assay with CCRF-CEM leukemia it was more than 100 µM; in the assay on LOX IMVI melanoma it was 27.5 µM. For the same compound, the TGI in the assay with HCT-116 colon was 36.2 µM; with HL-60(TB) leukemia it was more than 100 µM; with MDA-MB-231 breast it was 38.9 µM; in the assay on NCI/ADR-RES ovarian, more than 100 µM; with PC-3 prostate it was 47.7 µM; with SK-OV-3 ovarian, more than 100 µM. Further, the TGI with MALME-3M melanoma was more than 100 µM; in the assay on HCC-2998 colon, 46 µM; with OVCAR-4 ovarian, more than 100 µM; with CAKI-1 renal, more than 100 µM; in the assay on A549 NSCLC, 33.4 µM; with U251 CNS, 31.9 µM.
Consider `CC(=O)N1C(OC(C)C)CC(C)N1c1ccccc1` (stereo not drawn), for which the TGI in the assay on OVCAR-5 ovarian, in the assay with OVCAR-3 ovarian, in the assay with NCI-H226 lung, with CCRF-CEM leukemia, in the assay on LOX IMVI melanoma and with HCT-116 colon was more than 10 µM in each case. For the same compound, the TGI in the assay on HL-60(TB) leukemia, in the assay with MDA-MB-231 breast, in the assay on NCI/ADR-RES ovarian, with PC-3 prostate, in the assay with MALME-3M melanoma and in the assay on HCC-2998 colon was more than 10 µM in each case. For the same compound, the TGI with OVCAR-4 ovarian, in the assay on CAKI-1 renal, in the assay on A549 NSCLC and in the assay on TK-10 renal was more than 10 µM in each case.
Regarding `CCN1CCC(O)(c2ccc(Oc3ccccc3)cc2)C(C(=O)c2ccc(Oc3ccccc3)cc2)C1` (stereo not drawn), the TGI with OVCAR-5 ovarian was 31.3 µM; in the assay with OVCAR-3 ovarian, 31.9 µM; with KM12 colon, 18.9 µM; with CCRF-CEM leukemia, 25.5 µM; in the assay on LOX IMVI melanoma, 16.9 µM; in the assay with HCT-116 colon, 21.2 µM. The concentration for total growth inhibition (TGI) in the assay on HL-60(TB) leukemia came out at 14.1 µM; with MDA-MB-231 breast it was 30.2 µM; with NCI/ADR-RES ovarian, 35.1 µM; with PC-3 prostate, 27.1 µM; with MALME-3M melanoma, 34.6 µM; with HCC-2998 colon, 19.6 µM. Moreover, the concentration for total growth inhibition (TGI) in the assay on OVCAR-4 ovarian amounted to 25.3 µM; in the assay on CAKI-1 renal it was 31.2 µM; in the assay with A549 NSCLC, 27.5 µM; with TK-10 renal it was 27.3 µM; in the assay with U251 CNS, 24.2 µM.
On to `CC1(C)CC(C2=NCCO2)CC(C)(C)N1`, for which the total growth inhibition concentration (TGI) in the assay with OVCAR-5 ovarian, in the assay with OVCAR-3 ovarian, in the assay with NCI-H226 lung, in the assay on CCRF-CEM leukemia, in the assay on LOX IMVI melanoma and in the assay on HCT-116 colon was more than 100 µM each time. The total growth inhibition concentration (TGI) in the assay with HL-60(TB) leukemia, with MDA-MB-231 breast, in the assay with NCI/ADR-RES ovarian, in the assay on PC-3 prostate, with SK-OV-3 ovarian and in the assay with MALME-3M melanoma was more than 100 µM throughout. Further, the TGI in the assay on OVCAR-4 ovarian, in the assay on CAKI-1 renal, in the assay with A549 NSCLC, in the assay on TK-10 renal and with U251 CNS was more than 100 µM each time.
For the compound `Cc1ccc(C2=Nn3c(nc4sc(C)c(C)c4c3=O)SC2)cc1`, the TGI with OVCAR-5 ovarian, in the assay on OVCAR-3 ovarian, in the assay on KM12 colon, in the assay with NCI-H226 lung, with LOX IMVI melanoma and with HCT-116 colon was more than 100 µM throughout. For the same compound, the TGI in the assay on HL-60(TB) leukemia, in the assay with MDA-MB-231 breast, with NCI/ADR-RES ovarian, with PC-3 prostate, in the assay with SK-OV-3 ovarian and in the assay on MALME-3M melanoma was more than 100 µM in each case. Moreover, the TGI was more than 100 µM with HCC-2998 colon; more than 100 µM in the assay with OVCAR-4 ovarian; more than 100 µM with CAKI-1 renal; more than 100 µM in the assay with A549 NSCLC; 85.3 µM in the assay with TK-10 renal; more than 100 µM with U251 CNS.
As to `O=S1(=O)OCCOS(=O)(=O)C1S(=O)(=O)c1ccc2ccccc2c1`, the concentration for total growth inhibition (TGI) with OVCAR-5 ovarian, with OVCAR-3 ovarian, in the assay with KM12 colon, in the assay on CCRF-CEM leukemia, in the assay with LOX IMVI melanoma and in the assay on HCT-116 colon was more than 100 µM each time. Further, the TGI in the assay with HL-60(TB) leukemia, in the assay on MDA-MB-231 breast, with NCI/ADR-RES ovarian, in the assay with PC-3 prostate, in the assay with MALME-3M melanoma and with HCC-2998 colon was more than 100 µM throughout. In addition, the total growth inhibition concentration (TGI) in the assay with OVCAR-4 ovarian, with CAKI-1 renal, in the assay on A549 NSCLC, with TK-10 renal and in the assay on U251 CNS was more than 100 µM throughout.
Consider `S=c1nc(N2CCCCC2)c2cn[nH]c2[nH]1`, for which the TGI in the assay with OVCAR-5 ovarian, in the assay with OVCAR-3 ovarian, in the assay with KM12 colon, in the assay with NCI-H226 lung, with CCRF-CEM leukemia and in the assay on LOX IMVI melanoma was more than 100 µM throughout. The total growth inhibition concentration (TGI) was more than 100 µM in the assay on HCT-116 colon; 69.9 µM in the assay with HL-60(TB) leukemia; more than 100 µM in the assay on MDA-MB-231 breast; more than 100 µM with NCI/ADR-RES ovarian; more than 100 µM in the assay with PC-3 prostate; more than 100 µM in the assay with MALME-3M melanoma. In addition, the total growth inhibition concentration (TGI) with HCC-2998 colon, in the assay on OVCAR-4 ovarian, in the assay on CAKI-1 renal, in the assay on A549 NSCLC, with TK-10 renal and in the assay on U251 CNS was more than 100 µM each time.
